{"source": "patent US10829796B2", "about": "“Bacteria identification and antimicrobial susceptibility test” (priority 2015, dated 2020)", "test_system": "bacteria in clinical bovine mastitis milk samples", "assay": "Combined bacteria identification and antimicrobial susceptibility test (colour of wells, MIC) on clinical bovine mastitis milk samples", "assay_type": "cell-based", "procedure": "Clinical bovine mastitis milk samples were collected by a vet clinic in South Island, New Zealand. Samples were stored in the freezer for several months and shipped frozen to the testing facility. In this Example, the term “clinical” means that dairy cows had clinical symptoms of an udder infection e.g. cow behaved unusual, milk clots, swollen udder among other typical symptoms. Testing was executed in microwell plate comprising of 24 wells (3×8 wells).\nIn addition, 20 ul of clinical mastitis sample was added to each well with a laboratory pipette.\nAbbreviations • 1. 80 ul GC+10 ul Tell: 80 ul Giolitti Cantoni base broth+10 ul Tellurite solution (1%); • 2. 80 ul TSB/Esc/Fer Cit: 80 ul Tryptic soy broth containing 0.25% Esculin and 0.125% Ammonium Ferric Citrate; • 3. 80 ul TSB/Esc/Fer Cit+10 ul Genta: 80 ul Tryptic soy broth containing 0.25% Esculin and 0.125% Ammonium Ferric Citrate+10 ul of Gentamycin solution 10 mg/ml; • 4. 80 ul McC/PR25: 80 ul MacConkey broth (single strength) containing 0.0125% phenol red; and • 5. 80 ul TSB/PR25: 80 ul Tryptic soy broth containing 0.0125% phenol red. Bacteria Identification\nColumns A to C and rows 1 and 2 were used for bacteria identification. A1: coagulase positive Staph; A2: Staphylococci; B1: Strep group D; B2: Strep group D; C1: general enrichment media (gram+ and gram-bacteria); C2: coliform bacteria.\nColumn A3 to A8: serial dilution of benzyl penicillin as potassium. Column B3 to B8: serial dilution of ceftiofur as hydrochloride. Column C3 to C8: serial dilution of cloxacillin as sodium. Antibiotic concentrations are listed as free form ranging between 4 ug/ml to 0.05 ug/ml.\nMinimum inhibitory substance concentration (MIC) is here defined as the concentration if a colour change occurs between two wells (one well remains red with drug concentration 1, the other one yellow with drug concentration 2, whereas drug concentration 1 is larger than drug concentration 2) then the MIC is the value of drug concentration 1.\nTable 21 indicates the microwell plate configuration #1; Drugs: Benzylpenicillin as potassium; Cloxacillin as sodium; Ceftiofur as hydrochloride; Drug concentration in each well (A3 to C8) is based on 80 μl composition+10 μl drug solution+20 μl clinical mastitis milk sample and equivalent to listed drug concentration in μg/ml; 20 ul of clinical bovine mastitis milk sample was added to each well (A1 to C8).\nIn addition, each well received one drop of clinical sample from a transfer pipette which was on average about 35 mg. This was determined through weighing the well plate prior and after the addition of clinical mastitis samples. This weight was then divided by 24.\n• 1. 80 ul GC+10 ul Tell: 80 ul Giolitti Cantoni base broth+10 ul Tellurite solution (1%); • 2. 80 ul TSB/Esc/Fer Cit: 80 ul Tryptic soy broth containing 0.25% Esculin and 0.125% Ammonium Ferric Citrate; • 3. 80 ul TSB/Esc/Fer Cit+10 ul Genta: 80 ul Tryptic soy broth containing 0.25% Esculin and 0.125% Ammonium Ferric Citrate+10 ul of Gentamycin solution 10 mg/ml; • 4. 80 ul McC/PR25: 80 ul MacConkey broth (single strength) containing 0.0125% phenol red; and • 5. 80 ul TSB/PR25: 80 ul Tryptic soy broth containing 0.0125% phenol red.\nColumns A to C and rows 1 and 2 were used for bacteria identification. A1: coagulase positive Staph; A2: Staphylococci; B1: Strep Group D; B2: -; C1: general enrichment media (gram+ and gram-); C2: coliform bacteria.\nColumn A3 to A8: serial dilution of benzyl penicillin as potassium. Drug concentrations given as free form ranging between 4 ug/ml to 0.05 ug/ml. Column B3 to B8: serial dilution of ceftiofur as hydrochloride. Drug concentrations given as free form ranging between 4 ug/ml to 0.05 ug/ml. Column C3 to C8: serial dilution of cloxacillin as sodium. Drug concentrations given as free form ranging between 4 ug/ml to 0.05 ug/ml."}
{"smiles": "CO/N=C(\\C(=O)N[C@@H]1C(=O)N2C(C(=O)O)=C(CSC(=O)c3ccco3)CS[C@H]12)c1csc(N)n1", "note": "[ceftiofur]", "values": [{"measurement": "Colour of media in each well", "setting": "ID 1, T = 22 h, 37° C., plate configuration #1, drug 0.05 μg/ml", "result": "yellow"}, {"measurement": "Colour of media in each well", "setting": "ID 1, T = 22 h, 37° C., plate configuration #1, drug 0.1 μg/ml", "result": "yellow"}, {"measurement": "Colour of media in each well", "setting": "ID 1, T = 22 h, 37° C., plate configuration #1, drug 0.5 μg/ml", "result": "red"}, {"measurement": "Colour of media in each well", "setting": "ID 1, T = 22 h, 37° C., plate configuration #1, drug 1 μg/ml", "result": "red"}, {"measurement": "Colour of media in each well", "setting": "ID 1, T = 22 h, 37° C., plate configuration #1, drug 2 μg/ml", "result": "red"}, {"measurement": "Colour of media in each well", "setting": "ID 1, T = 22 h, 37° C., plate configuration #1, drug 4 μg/ml", "result": "red"}, {"measurement": "Colour of media in each well", "setting": "ID 2, T = 48 h, 37° C., plate configuration #1, drug 0.05 μg/ml", "result": "yellow"}, {"measurement": "Colour of media in each well", "setting": "ID 2, T = 48 h, 37° C., plate configuration #1, drug 0.1 μg/ml", "result": "yellow"}, {"measurement": "Colour of media in each well", "setting": "ID 2, T = 48 h, 37° C., plate configuration #1, drug 0.5 μg/ml", "result": "yellow"}, {"measurement": "Colour of media in each well", "setting": "ID 2, T = 48 h, 37° C., plate configuration #1, drug 1 μg/ml", "result": "red"}, {"measurement": "Colour of media in each well", "setting": "ID 2, T = 48 h, 37° C., plate configuration #1, drug 2 μg/ml", "result": "red"}, {"measurement": "Colour of media in each well", "setting": "ID 2, T = 48 h, 37° C., plate configuration #1, drug 4 μg/ml", "result": "red"}, {"measurement": "Colour of media in each well", "setting": "ID 3, T = 22 h, 37° C., plate configuration #1, drug 0.05 μg/ml", "result": "red"}, {"measurement": "Colour of media in each well", "setting": "ID 3, T = 22 h, 37° C., plate configuration #1, drug 0.1 μg/ml", "result": "yellow"}, {"measurement": "Colour of media in each well", "setting": "ID 3, T = 22 h, 37° C., plate configuration #1, drug 0.5 μg/ml", "result": "yellow"}, {"measurement": "Colour of media in each well", "setting": "ID 3, T = 22 h, 37° C., plate configuration #1, drug 1 μg/ml", "result": "red"}, {"measurement": "Colour of media in each well", "setting": "ID 3, T = 22 h, 37° C., plate configuration #1, drug 2 μg/ml", "result": "red"}, {"measurement": "Colour of media in each well", "setting": "ID 3, T = 22 h, 37° C., plate configuration #1, drug 4 μg/ml", "result": "red"}, {"measurement": "Colour of media in each well", "setting": "ID 3, T = 23 h, 37° C., Table 34, drug 0.05 μg/ml", "result": "red"}, {"measurement": "Colour of media in each well", "setting": "ID 3, T = 23 h, 37° C., Table 34, drug 0.1 μg/ml", "result": "yellow"}, {"measurement": "Colour of media in each well", "setting": "ID 3, T = 23 h, 37° C., Table 34, drug 0.5 μg/ml", "result": "yellow"}, {"measurement": "Colour of media in each well", "setting": "ID 3, T = 23 h, 37° C., Table 34, drug 1 μg/ml", "result": "red"}, {"measurement": "Colour of media in each well", "setting": "ID 3, T = 23 h, 37° C., Table 34, drug 2 μg/ml", "result": "red"}, {"measurement": "Colour of media in each well", "setting": "ID 3, T = 23 h, 37° C., Table 34, drug 4 μg/ml", "result": "red"}, {"measurement": "Colour of media in each well", "setting": "ID 3, T~7 h, 37° C., Table 34, drug 0.05 μg/ml", "result": "red"}, {"measurement": "Colour of media in each well", "setting": "ID 3, T~7 h, 37° C., Table 34, drug 0.1 μg/ml", "result": "red"}, {"measurement": "Colour of media in each well", "setting": "ID 3, T~7 h, 37° C., Table 34, drug 0.5 μg/ml", "result": "red"}, {"measurement": "Colour of media in each well", "setting": "ID 3, T~7 h, 37° C., Table 34, drug 1 μg/ml", "result": "red"}, {"measurement": "Colour of media in each well", "setting": "ID 3, T~7 h, 37° C., Table 34, drug 2 μg/ml", "result": "red"}, {"measurement": "Colour of media in each well", "setting": "ID 3, T~7 h, 37° C., Table 34, drug 4 μg/ml", "result": "red"}, {"measurement": "Colour of media in each well", "setting": "ID 3, T~11 h, 37° C., Table 34, drug 0.05 μg/ml", "result": "red"}, {"measurement": "Colour of media in each well", "setting": "ID 3, T~11 h, 37° C., Table 34, drug 0.1 μg/ml", "result": "red"}, {"measurement": "Colour of media in each well", "setting": "ID 3, T~11 h, 37° C., Table 34, drug 0.5 μg/ml", "result": "red"}, {"measurement": "Colour of media in each well", "setting": "ID 3, T~11 h, 37° C., Table 34, drug 1 μg/ml", "result": "red"}, {"measurement": "Colour of media in each well", "setting": "ID 3, T~11 h, 37° C., Table 34, drug 2 μg/ml", "result": "red"}, {"measurement": "Colour of media in each well", "setting": "ID 3, T~11 h, 37° C., Table 34, drug 4 μg/ml", "result": "red"}, {"measurement": "Colour of media in each well", "setting": "ID 4, T = 22 h, 37° C., plate configuration #1, drug 0.05 μg/ml", "result": "yellow"}, {"measurement": "Colour of media in each well", "setting": "ID 4, T = 22 h, 37° C., plate configuration #1, drug 0.1 μg/ml", "result": "yellow"}, {"measurement": "Colour of media in each well", "setting": "ID 4, T = 22 h, 37° C., plate configuration #1, drug 0.5 μg/ml", "result": "orange"}, {"measurement": "Colour of media in each well", "setting": "ID 4, T = 22 h, 37° C., plate configuration #1, drug 1 μg/ml", "result": "red"}, {"measurement": "Colour of media in each well", "setting": "ID 4, T = 22 h, 37° C., plate configuration #1, drug 2 μg/ml", "result": "red"}, {"measurement": "Colour of media in each well", "setting": "ID 4, T = 22 h, 37° C., plate configuration #1, drug 4 μg/ml", "result": "red"}, {"measurement": "Colour of media in each well", "setting": "ID 5, T = 23 h, 37° C., plate configuration #2, drug 0.05 μg/ml", "result": "yellow"}, {"measurement": "Colour of media in each well", "setting": "ID 5, T = 23 h, 37° C., plate configuration #2, drug 0.1 μg/ml", "result": "yellow"}, {"measurement": "Colour of media in each well", "setting": "ID 5, T = 23 h, 37° C., plate configuration #2, drug 0.5 μg/ml", "result": "red"}, {"measurement": "Colour of media in each well", "setting": "ID 5, T = 23 h, 37° C., plate configuration #2, drug 1 μg/ml", "result": "red"}, {"measurement": "Colour of media in each well", "setting": "ID 5, T = 23 h, 37° C., plate configuration #2, drug 2 μg/ml", "result": "red"}, {"measurement": "Colour of media in each well", "setting": "ID 5, T = 23 h, 37° C., plate configuration #2, drug 4 μg/ml", "result": "red"}, {"measurement": "Colour of media in each well", "setting": "ID 5 to 8, T = 0 h (prior incubation, reference), plate configuration #2, drug 0.05 μg/ml", "result": "red"}, {"measurement": "Colour of media in each well", "setting": "ID 5 to 8, T = 0 h (prior incubation, reference), plate configuration #2, drug 0.1 μg/ml", "result": "red"}, {"measurement": "Colour of media in each well", "setting": "ID 5 to 8, T = 0 h (prior incubation, reference), plate configuration #2, drug 0.5 μg/ml", "result": "red"}, {"measurement": "Colour of media in each well", "setting": "ID 5 to 8, T = 0 h (prior incubation, reference), plate configuration #2, drug 1 μg/ml", "result": "red"}]}
